Data published in the supplement of paper PMC6045584.
± gives the standard deviation of the averaged measurements.

Compound: Nc1ncn([C@H]2C[C@H](O)[C@@H](CO)O2)c(=O)n1 [DECITABINE]
Experiment: surviving fraction relative to DMSO-only wells; higher = less growth inhibition
Conditions: 0.5 nM; exposure time: 5 days
Summary of the method: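 Log-phase tumour cells were seeded at 250–500 per well in 384-well plates and, from 24 hours after seeding, exposed continuously for five days to inhibitors at 0.5, 1, 5, 10, 50, 100, 500 and 1000 nM. Surviving fraction is CellTiter-Glo luminescence normalised to the median of DMSO-only wells. Luminescence was measured after 10 minutes at room temperature, and only lines screened three times with replicate Pearson r >0.7 and median Z' >0.3 were kept.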

| Test System | surviving fraction |
| --- | --- |
| SCC36 HEADNECK | 1.01 ± 0.05 |
| OS25HAL BONE | 1.01 ± 0.024 |
| HCC1806 BREAST | 0.937 ± 0.083 |
| HU09 BONE | 0.982 ± 0.083 |
| SG43 HEADNECK | 1.02 ± 0.031 |
| U2OS BONE | 1.02 ± 0.043 |
| HOSMNG BONE | 1.04 ± 0.043 |
| CASKI CERVIX | 0.891 ± 0.044 |
| SUM44 BREAST | 1.15 ± 0.17 |
| MDAMB231 BREAST | 1 ± 0.034 |
| CAL51 BREAST | 1.03 ± 0.028 |
| MDAMB436 BREAST | 1.11 ± 0.084 |
| HSSYII SYNOVIAL | 0.972 ± 0.032 |
| RDES SOFT TISSUE | 1.24 ± 0.016 |
| MDAMB157 BREAST | 0.998 ± 0.013 |
| CHLA90 AUTONOMIC GANGLIA | 0.953 ± 0.073 |
| CADOES1 SOFT TISSUE | 0.915 ± 0.1 |
| SG31 HEADNECK | 1.27 ± 0.12 |
| SCC47 HEADNECK | 1.07 ± 0.084 |
| S68 BREAST | 0.828 ± 0.28 |
| SNU475 LIVER | 1.06 ± 0.024 |

| Test System | surviving fraction |
| --- | --- |
| 22RV1 PROSTATE | 1.01 ± 0.024 |
| SG32 HEADNECK | 1.25 ± 0.11 |
| SCC003 HEADNECK | 1.03 ± 0.038 |
| JURKAT HAEMATOPOIETIC AND LYMPHOID TISSUE | 1 ± 0.04 |
| HT1080 SOFT TISSUE | 1.1 ± 0.043 |
| CAL120 BREAST | 0.952 ± 0.053 |
| MCF7 BREAST | 0.932 ± 0.022 |
| MFM223 BREAST | 1.5 ± 0.59 |
| LNCAP PROSTATE | 0.917 ± 0.037 |
| PCI30 HEADNECK | 1.04 ± 0.03 |
| OSHN BONE | 1.08 ± 0.015 |
| SG28 HEADNECK | 1.14 ± 0.054 |
| HOS BONE | 1.01 ± 0.039 |
| HUO3N1 BONE | 0.958 ± 0.022 |
| BT20 BREAST | 1.24 ± 0.16 |
| SJSA1 BONE | 0.512 ± 0.028 |
| JIMT1 BREAST | 1.04 ± 0.021 |
| HCC78 LUNG | 0.979 ± 0.07 |
| NY BONE | 0.9793 ± 0.0075 |
| NOS1 BONE | 1.07 ± 0.099 |

Same assay, conditions: 1 nM; exposure time: 5 days

| Test System | surviving fraction |
| --- | --- |
| SCC36 HEADNECK | 1.01 ± 0.054 |
| OS25HAL BONE | 0.9963 ± 0.0074 |
| HCC1806 BREAST | 0.698 ± 0.11 |
| HU09 BONE | 0.968 ± 0.081 |
| SG43 HEADNECK | 1.14 ± 0.16 |
| U2OS BONE | 1.01 ± 0.052 |
| HOSMNG BONE | 1.03 ± 0.057 |
| CASKI CERVIX | 0.919 ± 0.096 |
| SUM44 BREAST | 1.1 ± 0.16 |
| MDAMB231 BREAST | 0.986 ± 0.024 |
| CAL51 BREAST | 0.98 ± 0.034 |
| MDAMB436 BREAST | 1.06 ± 0.079 |
| HSSYII SYNOVIAL | 1.01 ± 0.046 |
| RDES SOFT TISSUE | 1.14 ± 0.033 |
| MDAMB157 BREAST | 0.907 ± 0.046 |
| CHLA90 AUTONOMIC GANGLIA | 0.934 ± 0.085 |
| CADOES1 SOFT TISSUE | 0.962 ± 0.14 |
| SG31 HEADNECK | 1.2 ± 0.059 |
| SCC47 HEADNECK | 1.08 ± 0.13 |
| S68 BREAST | 0.903 ± 0.17 |
| SNU475 LIVER | 1.05 ± 0.024 |

| Test System | surviving fraction |
| --- | --- |
| 22RV1 PROSTATE | 0.935 ± 0.23 |
| SG32 HEADNECK | 1.26 ± 0.16 |
| SCC003 HEADNECK | 1.03 ± 0.032 |
| JURKAT HAEMATOPOIETIC AND LYMPHOID TISSUE | 1.06 ± 0.025 |
| HT1080 SOFT TISSUE | 1.08 ± 0.042 |
| CAL120 BREAST | 0.929 ± 0.059 |
| MCF7 BREAST | 0.906 ± 0.065 |
| MFM223 BREAST | 1.51 ± 0.5 |
| LNCAP PROSTATE | 1.02 ± 0.11 |
| PCI30 HEADNECK | 1.03 ± 0.052 |
| OSHN BONE | 1.06 ± 0.028 |
| SG28 HEADNECK | 1.28 ± 0.038 |
| HOS BONE | 1.02 ± 0.018 |
| HUO3N1 BONE | 0.99 ± 0.024 |
| BT20 BREAST | 1.14 ± 0.086 |
| SJSA1 BONE | 1.53 ± 0.038 |
| JIMT1 BREAST | 0.999 ± 0.032 |
| HCC78 LUNG | 1.01 ± 0.11 |
| NY BONE | 0.955 ± 0.016 |
| NOS1 BONE | 0.872 ± 0.046 |
